Data published in patent US10513511B2, “Aqueous suspension formulation comprising 4-(4-(4-(((3R,5R)-5-((1H-1,2,4-triazol-1-yl)methyl)-5-(2,4-difluoro-phenyl)tetrahydrofuran-3-yl)methoxy)-3-methylphenyl) or a pharmaceutically acceptable salt thereof” (PULMOCIDE LIMITED, priority 2015, dated 2019).
≈ marks a conversion by molar mass, not a printed value.

Tests used:
[1] = Body weight loss of immunocompromised, neutropenic mice caused by A. fumigatus infection; assay type: in vivo, A/J mice; conditions: days 1, 2 and 3 (therapeutic); for Body weight loss Day 2 / Body weight loss Day 3: vs weight on day 1
Protocol: Aspergillus fumigatus (ATCC 13073 [strain: NIH 5233], American Type Culture Collection, Manassas, Va., USA) was grown on Malt agar (Nissui Pharmaceutical, Tokyo, Japan) plates for 6-7 days at RT (24±1° C.). Spores were aseptically dislodged from the agar plates and suspended in sterile distilled water with 0.05% Tween 80 and 0.1% agar. On the day of infection, spore counts were assessed by haemocytometer and the inoculum was adjusted to obtain a concentration of 1.67×10^8 spores mL^−1 of physiological saline. […] On day 0, animals were infected with the spore suspension (30 μL intra-nasally).
Test substances were administered intra-nasally (35 μL of a suspension (0.0032-10.0 mg/mL of drug substance in physiological saline) once daily, on days 1, 2 and 3 only (thereby representing a therapeutic treatment regimen). For extended prophylactic treatment, test compounds (35 μL of a suspension of 0.0032 or 0.016 mg/mL in physiological saline) were administered intra-nasally once daily for seven days. One group was dosed 30 min before infection on day 0 but not subsequently, while a second group was further dosed on days 1, 2 and 3 after infection. The effects of these treatment paradigms were compared with those obtained when treatment was restricted in other groups to either one day or 30 min before inoculation and then on days 1, 2 and 3 post infection in both cases. In a final group, dosing was limited still further with animals dosed twice, one day and 30 min before infection only.
Animal body weights were monitored daily and at 6 hr after the last dose of drug was administered on day 3, the animals were anesthetised, the tracheas cannulated and BALF blood and lung tissue were collected. The levels of IL-6 and TNFα in serum were determined using Quantikine® mouse IL-6 or TNF-α ELISA kit (R&D systems, Inc., Minneapolis, Minn., USA) respectively. Aspergillus GM in serum was determination using Platelia GM-EIA kits (Bio-Rad Laboratories, Redmond, Wash., USA). Cut-off index (COI) was calculated by the formula: Cut-off index=OD in sample/OD in cut-off control provided in kit. For tissue fungal load assays, 100 mg of lung tissue was removed aseptically and homogenized in 0.2 mL of 0.1% agar in sterile distilled water. Serially diluted lung homogenates were plated on Malt agar plates (50 μL/plate), and incubated at 24±1° C. for 72 to 96 h. The colonies of A. fumigatus on each plate were counted and the fungal titre presented herein as CFUs per gram of lung tissue.

[2] = system: Rhizopus oryzae ATCC11145; experiment: Fungus panel screening, CLSI broth microdilution; assay type: cell-based; conditions: Rhizopus arrhizus; for MIC50: 50% inhibition by visual inspection (CLSI); for MIC: 100% inhibition by visual inspection (CLSI), read-out: MIC100
Protocol: (§1) Fungus panel screening was conducted by Eurofins Panlabs Inc. The MIC and MIC50 values of the test articles were determined following the guidelines of the CLSI: broth microdilution methods for yeast (CLSI M27-A2), (CLSI, 2002) and for filamentous fungi (CLSI M38-A), (CLSI, 2008).

[3] = system: Trichophyton rubrum ATCC10218; experiment: Fungus panel screening, CLSI broth microdilution; assay type: cell-based; conditions: for MIC: 100% inhibition by visual inspection (CLSI), read-out: MIC100; for MIC50: 50% inhibition by visual inspection (CLSI)
Protocol: as §1

[4] = system: Penicillium chrysogenum ATCC9480; experiment: Fungus panel screening, CLSI broth microdilution; assay type: cell-based; conditions: for MIC50: 50% inhibition by visual inspection (CLSI); for MIC: 100% inhibition by visual inspection (CLSI), read-out: MIC100
Protocol: as §1

[5] = system: Candida albicans 20183.073; experiment: Fungus panel screening, CLSI broth microdilution; assay type: cell-based; conditions: for MIC50: 50% inhibition by visual inspection (CLSI); for MIC: 100% inhibition by visual inspection (CLSI), read-out: MIC100
Protocol: as §1

[6] = system: Aspergillus flavus ATCC204304; experiment: Fungus panel screening, CLSI broth microdilution; assay type: cell-based; conditions: for MIC50: 50% inhibition by visual inspection (CLSI); for MIC: 100% inhibition by visual inspection (CLSI), read-out: MIC100
Protocol: as §1

[7] = system: Chaectomium globosum ATCC44699; experiment: Fungus panel screening, CLSI broth microdilution; assay type: cell-based; conditions: for MIC50: 50% inhibition by visual inspection (CLSI); for MIC: 100% inhibition by visual inspection (CLSI), read-out: MIC100
Protocol: as §1

[8] = system: Candida albicans 20240.047; experiment: Fungus panel screening, CLSI broth microdilution; assay type: cell-based; conditions: for MIC50: 50% inhibition by visual inspection (CLSI); for MIC: 100% inhibition by visual inspection (CLSI), read-out: MIC100
Protocol: as §1

[9] = system: Fusarium graminerarum ATCC16106; experiment: Fungus panel screening, CLSI broth microdilution; assay type: cell-based; conditions: for MIC50: 50% inhibition by visual inspection (CLSI); for MIC: 100% inhibition by visual inspection (CLSI), read-out: MIC100
Protocol: as §1

[10] = system: Candida krusei ATCC6258; experiment: Fungus panel screening, CLSI broth microdilution; assay type: cell-based; conditions: Pichia kudriavzevii; for MIC50: 50% inhibition by visual inspection (CLSI); for MIC: 100% inhibition by visual inspection (CLSI), read-out: MIC100
Protocol: as §1

[11] = system: Candida glabrata AT0036583; experiment: Fungus panel screening, CLSI broth microdilution; assay type: cell-based; conditions: Nakaseomyces glabratus; for MIC50: 50% inhibition by visual inspection (CLSI); for MIC: 100% inhibition by visual inspection (CLSI), read-out: MIC100
Protocol: as §1

[12] = Compound (Ia) 0.0032 mg/mL intranasal
[13] = Compound (Ia) 0.016 mg/mL intranasal
[14] = Compound (Ia) 0.08 mg/mL intranasal
[15] = Posaconazole 0.4 mg/mL intranasal
[16] = Posaconazole 2 mg/mL intranasal
[17] = Posaconazole 10 mg/mL intranasal

| Compound | MIC50 [2] | MIC [2] | MIC [3] | MIC50 [4] | MIC [4] | MIC50 [5] | MIC [5] | MIC50 [6] | MIC [6] | MIC50 [7] | MIC [7] | MIC50 [8] | MIC [8] | MIC50 [9] | MIC [9] | MIC50 [10] | MIC [10] | MIC50 [11] | MIC [11] | MIC50 [3] | also measured |
| --- | --- | --- | --- | --- | --- | --- | --- | --- | --- | --- | --- | --- | --- | --- | --- | --- | --- | --- | --- | --- | --- |
| Cc1cc(N2CCN(c3ccc(C(=O)N[C@H]4CCCC[C@@H]4O)cc3)CC2)ccc1OC[C@@H]1CO[C@@](Cn2cncn2)(c2ccc(F)cc2F)C1 [Compound (Ia), 4-(4-(4-(((3R,5R)-5-((1H-1,2,4-triazol-1-yl)methyl)-5-(2,4-difluorophenyl)tetrahydrofuran-3-yl)methoxy)-3-methylphenyl)piperazin-1-yl)-N-((1S,2S)-2-hydroxycyclohexyl) benzamide] | 0.25 µg/mL (≈ 0.364 µM) | 0.5 µg/mL (≈ 0.728 µM) | 0.031 µg/mL (≈ 0.0451 µM) | 0.063 µg/mL (≈ 0.0917 µM) | 0.13 µg/mL (≈ 0.189 µM) | 0.125 µg/mL (≈ 0.182 µM) | > 2 µg/mL | 0.13 µg/mL (≈ 0.189 µM) | 0.13 µg/mL (≈ 0.189 µM) | 0.031 µg/mL (≈ 0.0451 µM) | 0.13 µg/mL (≈ 0.189 µM) | 0.016 µg/mL (≈ 0.0233 µM) | > 2 µg/mL | 0.13 µg/mL (≈ 0.189 µM) | 0.5 µg/mL (≈ 0.728 µM) | 0.25 µg/mL (≈ 0.364 µM) | 0.25 µg/mL (≈ 0.364 µM) | 0.25 µg/mL (≈ 0.364 µM) | > 2 µg/mL | – | % Inhibition of weight loss Day 2 [1, 12]: 24%; % Inhibition of weight loss Day 3 [1, 12]: 9%; Body weight loss Day 2 [1, 12]: 4.2 ± 1.2%; Body weight loss Day 3 [1, 12]: 9.7 ± 2.1%; % Inhibition of weight loss Day 2 [1, 13]: 35%; % Inhibition of weight loss Day 3 [1, 13]: 9%; Body weight loss Day 2 [1, 13]: 3.6 ± 1.2%; Body weight loss Day 3 [1, 13]: 9.7 ± 3.2%; % Inhibition of weight loss Day 2 [1, 14]: 49%; % Inhibition of weight loss Day 3 [1, 14]: 22%; Body weight loss Day 2 [1, 14]: 2.8 ± 2.4%; Body weight loss Day 3 [1, 14]: 8.3 ± 6.7% |
| CC[C@@H]([C@H](C)O)n1ncn(-c2ccc(N3CCN(c4ccc(OC[C@@H]5CO[C@@](Cn6cncn6)(c6ccc(F)cc6F)C5)cc4)CC3)cc2)c1=O [Posaconazole, reference compound] | 0.13 µg/mL (≈ 0.186 µM) | > 8 µg/mL | 0.031 µg/mL (≈ 0.0442 µM) | 0.063 µg/mL (≈ 0.0899 µM) | 0.13 µg/mL (≈ 0.186 µM) | 0.25 µg/mL (≈ 0.357 µM) | > 8 µg/mL | 0.063 µg/mL (≈ 0.0899 µM) | 0.13 µg/mL (≈ 0.186 µM) | 0.13 µg/mL (≈ 0.186 µM) | 0.25 µg/mL (≈ 0.357 µM) | 0.031 µg/mL (≈ 0.0442 µM) | > 8 µg/mL | > 8 µg/mL | > 8 µg/mL | 0.13 µg/mL (≈ 0.186 µM) | 0.25 µg/mL (≈ 0.357 µM) | 0.5 µg/mL (≈ 0.713 µM) | > 8 µg/mL | < 0.008 µg/mL | % Inhibition of weight loss Day 2 [1, 15]: −15%; % Inhibition of weight loss Day 3 [1, 15]: 1%; Body weight loss Day 2 [1, 15]: 5.4 ± 0.4%; Body weight loss Day 3 [1, 15]: 9.2 ± 4.0%; % Inhibition of weight loss Day 2 [1, 16]: 17%; % Inhibition of weight loss Day 3 [1, 16]: 24%; Body weight loss Day 2 [1, 16]: 3.9 ± 1.3%; Body weight loss Day 3 [1, 16]: 7.1 ± 1.9%; % Inhibition of weight loss Day 2 [1, 17]: 17%; % Inhibition of weight loss Day 3 [1, 17]: 54%; Body weight loss Day 2 [1, 17]: 3.9 ± 1.3%; Body weight loss Day 3 [1, 17]: 4.3 ± 1.8% |
| C[C@@H](c1ncncc1F)[C@](O)(Cn1cncn1)c1ccc(F)cc1F [Voriconazole] | 8 µg/mL (≈ 22.9 µM) | > 8 µg/mL | 0.063 µg/mL (≈ 0.18 µM) | 1 µg/mL (≈ 2.86 µM) | 2 µg/mL (≈ 5.73 µM) | 4 µg/mL (≈ 11.5 µM) | > 8 µg/mL | 1 µg/mL (≈ 2.86 µM) | 2 µg/mL (≈ 5.73 µM) | 0.5 µg/mL (≈ 1.43 µM) | 1 µg/mL (≈ 2.86 µM) | 0.031 µg/mL (≈ 0.0887 µM) | > 8 µg/mL | > 8 µg/mL | > 8 µg/mL | 0.25 µg/mL (≈ 0.716 µM) | 1 µg/mL (≈ 2.86 µM) | 0.25 µg/mL (≈ 0.716 µM) | > 8 µg/mL | < 0.008 µg/mL | – |
